Results as given in patent EP4722228A1, “NEW COMPOUND TARGETING MUSK AND USE THEREOF” (The University of Tokyo, priority 2023, dated 2024).
Bridge positions count the residues as written; N and C are the ends. Square brackets hold non-standard residues; d marks the D form. Peptide text beside a SMILES is read from it. I, II: the chains in the order shown. * marks the point of attachment. Palmitoyl = CCCCCCCCCCCCCCCC(=O)*; PEG3 = NCCOCCOCCOCCC(=O)O; Dap = NC[C@H](N)C(=O)O

Columns and labels:
rat PTMG model = experiment: Rat PTMG myasthenia gravis model induced by anti-acetylcholine receptor monoclonal antibody (mAb35); type: in vivo; details: 0-72 hr after antibody
Procedure: (§1) 5-week-old female rats (n=20, LEW/CrlCrlj, 4 weeks old when carried in, Jackson Laboratory Japan) were divided into four groups (Group A, Group B, Group C, and Group D) using body weight measurement results as indexes. Vehicle was administered to Group A, and the test compound MuSK7-pal dissolved in vehicle was administered intravenously to each of Group B (3 mg/kg), Group C (2 mg/kg), and Group D (1 mg/kg) (Day 0). Two hours after intravenous administration, an anti-nicotinic acetylcholine receptor monoclonal antibody (mAb35, National Hospital Organization Nagasaki Kawatana Medical Center) dissolved in PBS (pH 7.4) as a drug for inducing the pathology of myasthenia gravis was administered intraperitoneally to all animals at 200 µg/rat (Day 0). The vehicle, which was a solvent of the compound, was phosphate-buffered saline (PBS) at pH 7.4 containing 20% hydroxypropyl-β-cyclodextrin and 0.02% polysorbate 80 (the same applies to Example 3(2)).
Next, the body weight of the animals was measured before antibody administration (pre) and at 0, 9, 24, 33, 48, 57, and 72 hours (hr) after antibody administration. The movement, muscle strength, and grip strength of the animals were evaluated by the following tests. […]
as §1, with “(n=24,” for “(n=20,”, “(0.5” for “(3”, “(0.25” for “(2”, “(0.1” for “(1”, “0).” for “0). The vehicle, which was a solvent of the compound, was phosphate-buffered saline (PBS) at pH 7.4 containing 20% hydroxypropyl-β-cyclodextrin and 0.02% polysorbate 80 (the same applies to Example 3(2)).”
The movement of the animals was evaluated at each time point of 9, 24, 33, 48, 57, and 72 hours (hr) after antibody administration according to six-level evaluation criteria (Score). The evaluation criteria were the same as those in (1) B above. […]

human MuSK = biological target: T1, human MuSK (Homo sapiens, UniProt O15146); experiment: SPR binding activity test to human MuSK (Biacore); details: Table 5, read-out: Binding activity (KD) (nM) Human
T1 construct: DNA corresponding to the extracellular portion (amino acids 1-493) was amplified by a PCR method; made in house; host or cells: Expi293F cells
T1 sequence (O15146 24-493): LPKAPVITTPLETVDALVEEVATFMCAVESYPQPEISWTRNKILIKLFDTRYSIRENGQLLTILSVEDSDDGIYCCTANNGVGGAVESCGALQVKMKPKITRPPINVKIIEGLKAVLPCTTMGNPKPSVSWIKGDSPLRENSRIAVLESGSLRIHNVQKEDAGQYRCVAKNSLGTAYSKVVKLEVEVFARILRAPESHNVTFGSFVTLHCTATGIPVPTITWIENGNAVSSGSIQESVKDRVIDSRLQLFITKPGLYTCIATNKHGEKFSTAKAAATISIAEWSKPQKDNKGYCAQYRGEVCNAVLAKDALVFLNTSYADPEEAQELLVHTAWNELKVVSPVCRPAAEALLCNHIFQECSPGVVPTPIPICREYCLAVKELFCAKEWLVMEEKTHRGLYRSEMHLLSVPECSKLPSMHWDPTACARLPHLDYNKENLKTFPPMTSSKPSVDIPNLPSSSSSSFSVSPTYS
Procedure: The human MuSK protein (extracellular portion) was prepared as a recombinant protein as follows. Using a Flexi clone (FXC31275, Promega Corporation) encoding Human MuSK isoform 1 precursor (NCBI Reference Sequence: NP_005583.1) as a template, DNA corresponding to the extracellular portion (amino acids 1-493) was amplified by a PCR method. XhoI and EcoRI restriction enzyme recognition sequences were added to both the 5' and 3' ends of the amplified DNA sequence, and these were used for insertion into the multiple cloning site of a pCAG-Neo hIgG1-Fc plasmid (Fujifilm Wako Pure Chemical Corporation). This plasmid (pCAG-Neo hMuSK-Fc) enables expression of a chimeric protein of the secretory human MuSK extracellular portion and human IgG1 Fc (hMuSK-Fc; molecular weight of approximately 200 kDa) in animal cells. In practice, ExpiFectamine 293 reagent (Invitrogen) was used to transfect the pCAG-Neo hMuSK-Fc plasmid into Expi293F cells (Invitrogen), and shaking culture was carried out (for 6 days) in an incubator containing 8% CO2. Next, the culture supernatant was collected, centrifuged, and sterilized by filtration through a 0.22 µm filter. The obtained culture supernatant was subjected to Protein G purification, and finally, a purified hMuSK-Fc sample with 99.96% purity (AKTA-FPLC analysis) was obtained.
The strength of binding between MuSK and the cyclic peptides was evaluated by quantitatively measuring the binding kinetics (binding affinity (dissociation constant) KD) of the cyclic peptides to MuSK immobilized on a sensor chip via an Fc tag, using surface plasmon resonance (SPR).
According to the standard immobilization protocol provided by the manufacturer, Fc-tagged human/mouse/rat MuSK was immobilized on a Protein G chip or a Protein A chip (Cytiva). A running buffer for the monomer/dimer peptides contained 0.010 M phosphate, 0.14 M NaCl, 0.0027 M KCl, 0.05% (v/v) Tween 20, and 0.1% (v/v) DMSO. A running buffer for the monomer/dimer U-bodies contained 0.010 M phosphate, 0.14 M NaCl, 0.0027 M KCl, and 0.05% (v/v) Tween 20. A series of concentrations of each monomer peptide, dimer peptide, monomer U-body, and dimer U-body was injected as analytes. A 1:1 binding fitting analysis was applied using Biacore evaluation software, and ka, kd, and KD values were determined.
Fc-tagged human MuSK was prepared according to the procedure described in Example 1(1). In addition, Fc-tagged mouse MuSK was used by expressing a nucleotide sequence encoding the Fc-tagged mouse MuSK extracellular domain (SEQ ID NO: 34). In addition, Fc-tagged rat MuSK was used as a chimeric protein of rat MuSK and an Fc protein, namely, Recombinant Rat MuSK Fc Chimera Protein (catalog number: 9847-MK-050, R&D Systems).
The affinity of the U-bodies and their complexes obtained as described above for MuSK of human, rat, and mouse was evaluated (binding activity test). The test was carried out according to the procedure described in Example 1(3). However, for the complexes of U-bodies, surface plasmon resonance (SPR) analysis was carried out using a Biacore 8K (Cytiva).

**Q.** What does the source list for `CCCCCCCCCCCCCCCC(=O)NCCCC[C@H](NC(=O)[C@H](CNC(=O)CCOCCOCCOCCNC(=O)CNC(=O)[C@@H]1CSCC(=O)N[C@H](Cc2ccc(O)cc2)C(=O)N2CCC[C@H]2C(=O)N[C@@H](CO)C(=O)N[C@@H](Cc2ccc(O)cc2)C(=O)N[C@@H](Cc2c[nH]cn2)C(=O)N[C@@H]([C@@H](C)O)C(=O)N[C@@H](CC(N)=O)C(=O)N[C@@H](C(C)C)C(=O)N[C@@H](C(C)C)C(=O)N[C@@H](C)C(=O)N[C@@H](CO)C(=O)N[C@@H](CC(C)C)C(=O)N[C@@H](CCCCN)C(=O)N[C@@H](CCCNC(=N)N)C(=O)N1)NC(=O)CCOCCOCCOCCNC(=O)CNC(=O)[C@@H]1CSCC(=O)N[C@H](Cc2ccc(O)cc2)C(=O)N2CCC[C@H]2C(=O)N[C@@H](CO)C(=O)N[C@@H](Cc2ccc(O)cc2)C(=O)N[C@@H](Cc2c[nH]cn2)C(=O)N[C@@H]([C@@H](C)O)C(=O)N[C@@H](CC(N)=O)C(=O)N[C@@H](C(C)C)C(=O)N[C@@H](C(C)C)C(=O)N[C@@H](C)C(=O)N[C@@H](CO)C(=O)N[C@@H](CC(C)C)C(=O)N[C@@H](CCCCN)C(=O)N[C@@H](CCCNC(=N)N)C(=O)N1)C(N)=O` [MuSK7-pal] (I: {CH2CO}-[dY]PSYHTNVVASLKRCG[PEG3][Dap]K(Palmitoyl)-NH2 / II: {CH2CO}-[dY]PSYHTNVVASLKRCG[PEG3]; amide I:18-II:C; thioether I:N-I:15, II:N-II:15)?
**A.** body weight change (rat PTMG model; 0.1 mg/kg intravenous (Group D, low-dose study)): the degree of decrease in body weight was milder than that in Group A; body weight change (rat PTMG model; 0.25 mg/kg intravenous (Group C, low-dose study)): the degree of decrease in body weight was milder than that in Group A; body weight change (rat PTMG model; 0.5 mg/kg intravenous (Group B, low-dose study)): the degree of decrease in body weight was milder than that in Group A; body weight change (rat PTMG model; 2 mg/kg intravenous (Group C, high-dose study)): the degree of decrease in body weight was milder than that in Group A; body weight change (rat PTMG model; 3 mg/kg intravenous (Group B, high-dose study)): the degree of decrease in body weight was milder than that in Group A; Kd (human MuSK): 0.9 nM
